Experimental findings from patent US12441730B2, “PRMT5 inhibitors” (Merck Sharp & Dohme LLC, priority 2019, dated 2025) are described below.

Where two headings read alike, the source gives them in different places.

Broadly, the EC50 is the concentration needed to bring the measured effect to its halfway point.

The target in test [1] is T1, Full-length (FL)-PRMT5-MEP50 enzyme complex (Homo sapiens, UniProt O14744).
T1 construct: Full-length (FL)-PRMT5-MEP50 enzyme complex (recombinant proteins from baculovirus-transfected Sf21 cells: FL-PRMT5; MW=73837 kDa and FL-MEP50; MW=38614); made in house; host or cells: baculovirus-transfected Sf21 cells
T1 sequence (O14744 whole entry): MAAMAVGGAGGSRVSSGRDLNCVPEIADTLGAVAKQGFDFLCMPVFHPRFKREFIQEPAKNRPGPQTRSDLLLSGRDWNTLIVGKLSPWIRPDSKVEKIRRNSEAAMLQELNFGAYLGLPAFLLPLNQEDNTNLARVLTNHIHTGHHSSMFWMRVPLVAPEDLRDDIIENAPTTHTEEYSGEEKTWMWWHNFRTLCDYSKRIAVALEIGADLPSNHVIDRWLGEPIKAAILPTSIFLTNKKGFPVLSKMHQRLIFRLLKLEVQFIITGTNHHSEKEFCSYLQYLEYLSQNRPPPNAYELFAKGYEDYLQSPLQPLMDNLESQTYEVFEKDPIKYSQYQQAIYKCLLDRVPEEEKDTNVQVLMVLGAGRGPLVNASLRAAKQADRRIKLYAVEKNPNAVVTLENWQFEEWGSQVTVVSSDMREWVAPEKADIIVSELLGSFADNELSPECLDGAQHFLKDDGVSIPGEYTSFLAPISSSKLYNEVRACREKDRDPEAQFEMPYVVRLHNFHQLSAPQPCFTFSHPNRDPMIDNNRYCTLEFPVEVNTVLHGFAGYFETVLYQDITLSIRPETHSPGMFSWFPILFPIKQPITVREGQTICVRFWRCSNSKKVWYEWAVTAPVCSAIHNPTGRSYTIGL
T1 sequence (Q9BQA1 whole entry partner): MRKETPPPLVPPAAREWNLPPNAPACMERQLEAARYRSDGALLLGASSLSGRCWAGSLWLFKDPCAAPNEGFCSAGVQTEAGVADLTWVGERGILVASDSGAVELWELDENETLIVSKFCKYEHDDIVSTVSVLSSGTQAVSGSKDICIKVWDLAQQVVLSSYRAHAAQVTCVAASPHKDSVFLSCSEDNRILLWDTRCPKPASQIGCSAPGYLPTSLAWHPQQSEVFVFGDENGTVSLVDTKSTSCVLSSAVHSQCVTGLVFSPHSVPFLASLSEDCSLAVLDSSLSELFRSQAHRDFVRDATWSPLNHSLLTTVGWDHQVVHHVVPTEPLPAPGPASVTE
Kind of test: PRMT5-MEP50 Enzyme Methylation Assay (Version B). The class given is biochemical. As for the experimental part:
PRMT5-MEP50 Enzyme Methylation Assay (Version B)
PRMT5/MEP50 biochemical assay is a direct measurement of the methylation activity of the enzyme complex on a short peptide substrate derived from the N-terminus of H4 histone. Methylation experiment was performed with recombinant protein. The assessment of inhibitory effect (IC50) of small molecules was measured by the effectiveness of the compounds to inhibit this reaction.
In this assay, the potency (IC50) of each compound was determined from a twenty-point (1:2 serial dilution; top compound concentration of 100000 nM) titration curve using the following outlined procedure. To each well of a white ProxiPlus 384 well-plate, 100 nL of compound (1% DMSO in final assay volume of 10 μL) was dispensed, followed by the addition of 8 μL of 1× assay buffer (50 mM Bicine pH 8.0, 1 mM DTT, 0.004% Tween20, 0.01% BSA) containing 0.5 nM of Full-length (FL)-PRMT5-MEP50 enzyme complex (recombinant proteins from baculovirus-transfected Sf21 cells: FL-PRMT5; MW=[…] and FL-MEP50; MW=38614). Plates were sealed and placed in a 37° C. humidified chamber for 30 minutes pre-incubation with compounds. Subsequently, each reaction was initiated by the addition of 2 μL 1× assay buffer containing 75 nM biotinylated H4R3 (Me1) peptide, and 15 μM S-(5′-Adenosyl)-L-Methionine Chloride (SAM). The final reaction in each well of 10 μL consists of 0.5 nM PRMT5-MEP50, 75 nM biotinylated-peptide, and 15 μM SAM. Methylation reactions were allowed to proceed for 150 minutes in a sealed plate at 37° C. Reactions were immediately quenched by the addition of 1 μL of 10% formic acid. Plates were then frozen and shipped to SAMDI™ Tech Inc. to determine the percent conversion from […]. EC50 values were determined by non-linear regression according to models for either sigmoidal (4 parameters) or biphasic (7 parameters) dose-response curves.

The subject of test [2] is symmetric dimethylation of arginine (SDMA) of PRMT5 substrates in MCF-7 cells. Description: PRMT5 Cell Target Engagement (TE) Assay. The class given is cell-based. To be noted: 3 days treatment, SDMA high content imaging. The essentials:
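MCF-7 cells treated 3 days at 37 °C with a ten-point 1:3 titration from 10000 nM. Fixed cells immunostained with anti-SDMA and Alexa488 secondary; nuclear fluorescence quantified by high-content imaging versus DMSO wells, with IC50 from a 4-parameter fit.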

The mark [3] stands for this setting: second value of 7 parameter biphasic fit, read-out: Enzyme Methylation Assay Version B (EC50 2).
Where [4] appears, read: single EC50 = 4 parameter single site sigmoidal fit, EC50 1 = first value of 7 parameter biphasic fit, read-out: Enzyme Methylation Assay Version B (EC50 or EC50 1).

Turning to `O=C(c1ccc(C(=O)N2C3CCC2COC3)cc1)N1CCC2(Cc3ccccc3CN2)C(O)C1` (single isomer, unassigned) [Example 152, (3′-hydroxy-1,4-dihydro-1′H,2H-spiro[isoquinoline-3,4′-piperidin]-1′-yl)[4-(3-oxa-8-azabicyclo[3.2.1]oct-8-ylcarbonyl)phenyl]methanone], the 50% effective concentration (EC50) came to 335 nM in test [1] (setting [3]), 1.2 nM in test [1] (setting [4]) and 27.7 nM in test [2].

As to `CCOc1cc(C(=O)N2C3CCC2COC3)ccc1C(=O)N1CCC2(CC1)Cc1ccc(Cl)cc1CN2` [Example 52, [4-(7-chloro-1,4-dihydro-1H,2H-spiro[isoquinoline-3,4′-piperidine]-1′-carbonyl)-3-ethoxyphenyl](3-oxa-8-azabicyclo[3.2.l]octan-8-yl)methanone], the half-maximal effective concentration (EC50) in test [1] (setting [3]) worked out at 2250 nM; in test [1] (setting [4]), 6.71 nM; in test [2] (Homo sapiens, MCF7, 72 h) it was 87.7 nM.

Take `CC(=O)N1CCC(Nc2cc(C(=O)N3CCC4(CC3)Cc3ccc(Cl)cc3CN4)ncn2)CC1` [Example 53, 1-(4-{[6-(7-chloro-1,4-dihydro-1′H,2H-spiro[isoquinoline-3,4′-piperidine]-1′-carbonyl)pyrimidin-4-yl]amino}piperidin-1-yl)ethan-1-one]: the 50% effective concentration (EC50) in test [1] (setting [3]) was determined as 5550 nM; in test [1] (setting [4]) it was 6.21 nM; in test [2] (Homo sapiens, MCF7, 72 h), 488 nM.

Regarding `CCOc1cc(C(=O)N2C3CCC2COC3)ccc1C(=O)N1CCC2(CC1)Cc1ccccc1CN2` [Example 172, (4-(3-oxa-8-azabicyclo[3.2.1]octane-8-carbonyl)-2-ethoxyphenyl)(1,4-dihydro-2H-spiro[isoquinoline-3,4′-piperidin]-1′-yl)methanone], the EC50 in test [1] (setting [3]) turned out to be 1940 nM; in test [1] (setting [4]) it was 5.42 nM; in test [2] (Homo sapiens, MCF7, 72 h), 88.9 nM.

With `CC(=O)N1CCC(Nc2cc(C(=O)N3CC[C@]4(Cc5ccccc5CN4)[C@H](O)C3)c(Cl)cn2)CC1` [Example 4, 11-(4-((5-chloro-4-((3R,3’R)-3′-hydroxy-1,4-dihydro-2H-spiro[isoquinoline-3,4′-piperidine]-1′-carbonyl)pyridin-2-yl)amino)piperidin-1-yl)ethan-1-one], the EC50 is 1530 nM in test [1] (setting [3]); 2.63 nM in test [1] (setting [4]); 55.9 nM in test [2] (Homo sapiens, MCF7, 72 h).

With `O=C(c1ccc(C(=O)N2C3CCC2COC3)cc1)N1CCC2(CC1)Cc1ccccc1CN2` [Example 173, (4-(3-oxa-8-azabicyclo[3.2.1]octane-8-carbonyl)phenyl)(1,4-dihydro-2H-spiro[isoquinoline-3,4′-piperidin]-1′-yl)methanone], the EC50 in test [1] (setting [3]) was found to be 14400 nM; in test [1] (setting [4]), 32.3 nM; in test [2] (Homo sapiens, MCF7, 72 h), 5310 nM.

On to `CC(=O)N1CCC(Nc2cc(C(=O)N3CC[C@]4(Cc5ccccc5CN4)[C@H](O)C3)c(F)cn2)CC1` [Example 5, 1-(4-((5-fluoro-4-((3R,3’R)-3′-hydroxy-1,4-dihydro-2H-spiro[isoquinoline-3,4′-piperidine]-1′-carbonyl)pyridin-2-yl)amino)piperidin-1-yl)ethan-1-one], for which the 50% effective concentration (EC50) amounted to 1110 nM in test [1] (setting [3]); 5.18 nM in test [1] (setting [4]); 38.6 nM in test [2] (Homo sapiens, MCF7, 72 h).

For the molecule `CCOc1cc(C(=O)N2C3CCC2COC3)ccc1C(=O)N1CCC2(Cc3ccccc3CN2)C(O)C1` (single isomer, unassigned) [Example 86, A diastereomer of {3-ethoxy-4-[(3′-hydroxy-1,4-dihydro-1′H,2H-spiro[isoquinoline-3,4′-piperidin]-1′-yl)carbonyl]phenyl}(3-oxa-8-azabicyclo[3.2.1]oct-8-yl)methanone], the results for the EC50 in test [1] (setting [3]), in test [1] (setting [4]) and in test [2] were 28800 nM, 82.2 nM and 1470 nM, respectively.

For `CCOc1nc(C(F)(F)F)ccc1C(=O)N1CCC2(CC1)Cc1ccccc1CN2` [Example 115, (1,4-dihydro-1′H,2H-spiro[isoquinoline-3,4′-piperidin]-1′-yl)[2-ethoxy-6-(trifluoromethyl)pyridin-3-yl]methanone], the EC50 in test [1] (setting [3]) was 55000 nM; in test [1] (setting [4]), 86.3 nM; in test [2] (Homo sapiens, MCF7, 72 h), ≥ 10000 nM.

As for `Cn1ncnc1-c1ccc(C(=O)N2CCC3(CC2)Cc2ccccc2CN3)cc1` [Example 117, (1,4-dihydro-1′H,2H-spiro[isoquinoline-3,4′-piperidin]-1′-yl)[4-(1-methyl-1H-1,2,4-triazol-5-yl)phenyl]methanone], the EC50 in test [1] (setting [3]) is ≥ 100000 nM; in test [1] (setting [4]), 690 nM; in test [2] (Homo sapiens, MCF7, 72 h) it was ≥ 10000 nM.

In the case of `CC(=O)N1CCC(Nc2cc(C(=O)N3CC[C@]4(Cc5ccccc5CN4)[C@H](O)C3)ccn2)C(F)(F)C1` (single isomer, unassigned) [Example 97, 1—((S or R)-3,3-difluoro-4-((4-((3R,3′R)-3′-hydroxy-1,4-dihydro-2H-spiro[isoquinoline-3,4′-piperidine]-1′-carbonyl)pyridin-2-yl)amino)piperidin-1-yl)ethan-1-one], the EC50 stood at 7410 nM in test [1] (setting [3]), 4.54 nM in test [1] (setting [4]) and 216 nM in test [2].

Consider `CC(=O)N1CCC(Nc2cc(C(=O)N3CCC4(CC3)Cc3ccccc3CN4)ccn2)CC1` [Example 174, 1-(4-((4-(1,4-dihydro-2H-spiro[isoquinoline-3,4′-piperidine]-1′-carbonyl)pyridin-2-yl)amino)piperidin-1-yl)ethan-1-one], for which the concentration giving a half-maximal response (EC50) in test [1] (setting [3]) is 8840 nM; in test [1] (setting [4]), 13.3 nM; in test [2] (Homo sapiens, MCF7, 72 h) it was 797 nM.

`CCOc1cc(C(=O)N2C3CCC2COC3)ccc1C(=O)N1CCC2(Cc3ccccc3CN2)C(O)C1` (single isomer, unassigned) [Example 87, A diastereomer of {3-ethoxy-4-[(3′-hydroxy-1,4-dihydro-1′H,2H-spiro[isoquinoline-3,4′-piperidin]-1′-yl)carbonyl]phenyl}(3-oxa-8-azabicyclo[3.2.1]oct-8-yl)methanone]: the EC50 was 671 nM in test [1] (setting [3]), 3.54 nM in test [1] (setting [4]) and 9.16 nM in test [2].

`CCOc1cc(C(=O)N2C3CCC2COC3)ccc1C(=O)N1CCC2(Cc3ccccc3CN2)C(O)C1` (single isomer, unassigned) [Example 89, A diastereomer of {3-ethoxy-4-[(3′-hydroxy-1,4-dihydro-1′H,2H-spiro[isoquinoline-3,4′-piperidin]-1′-yl)carbonyl]phenyl}(3-oxa-8-azabicyclo[3.2.1]oct-8-yl)methanone]: the half-maximal effective concentration (EC50) in test [1] (setting [3]) came out at 1980 nM; in test [1] (setting [4]), 4.81 nM; in test [2] it was 6.88 nM.

With `CC(=O)N1CCC(Nc2cc(C(=O)N3CCC4(Cc5ccccc5CN4)C(O)C3)ncn2)CC1` (single isomer, unassigned) [Example 90, A diastereomer of 1-[4-({6-[(3′-hydroxy-1,4-dihydro-1′H,2H-spiro[isoquinoline-3,4′-piperidin]-1′-yl)carbonyl]-4-pyrimidinyl}amino)-1-piperidinyl]ethanone], the concentration for a half-maximal effect (EC50) was 206 nM in test [1] (setting [4]) and ≥ 10000 nM in test [2].

Turning to `O=C(c1ccc(-c2ncnn2C2CC2)cc1Cl)N1CC[C@]2(Cc3ccccc3CN2)[C@H](O)C1` [Example 110, (2-chloro-4-(1-cyclopropyl-1H-1,2,4-triazol-5-yl)phenyl)((3R,3′R)-3′-hydroxy-1,4-dihydro-2H-spiro[isoquinoline-3,4′-piperidin]-1′-yl)methanone], the 50% effective concentration (EC50) in test [1] (setting [3]) was determined as 8710 nM; in test [1] (setting [4]), 3.31 nM; in test [2] (Homo sapiens, MCF7, 72 h), 53 nM.

Consider `O=C(c1ccc(C(=O)N2C3CCC2COC3)cc1OC1CC1)N1CCC2(CC1)Cc1ccccc1CN2` [Example 176, (4-(3-oxa-8-azabicyclo[3.2.1]octane-8-carbonyl)-2-cyclopropoxyphenyl)(1,4-dihydro-2H-spiro[isoquinoline-3,4′-piperidin]-1′-yl)methanone], for which the EC50 in test [1] (setting [3]) is 2860 nM; in test [1] (setting [4]), 11 nM; in test [2] (Homo sapiens, MCF7, 72 h) it was 253 nM.

As for `O=C(c1ccc(C(=O)N2C3CCC2COC3)cc1)N1CCC2(Cc3ccccc3CN2)C(O)C1` (single isomer, unassigned) [Example 149, (3′-hydroxy-1,4-dihydro-1′H,2H-spiro[isoquinoline-3,4′-piperidin]-1′ -yl)[4-(3-oxa-8-azabicyclo[3.2.1]oct-8-ylcarbonyl)phenyl]methanone], the concentration giving a half-maximal response (EC50) in test [1] (setting [3]) was ≥ 100000 nM; in test [1] (setting [4]), 298 nM; in test [2] it was 9840 nM.
